Measured values: ChEMBL document CHEMBL1201862, “PubChem BioAssay data set” (2004)
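Step 1: Grow cells in 96-well plates. Step 2: Expose to compound for 48 hours at 5 concentrations. Step 3: Interpolate endpoints linearly; if unreached, use highest concentration. GI50 is the concentration that inhibits growth by half.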 Activity calls are given as the source filed them. Cut-off read from the data, not from the text of the source: active = GI50 up to about 1.1 µM and inactive = higher.

Legend:
Experiment in all cases: DTP human tumour cell line panel, 48 h
HCT-116 = test system: HCT-116
HOP-62 = test system: HOP-62
LOX IMVI = test system: LOX IMVI
HOP-92 = test system: HOP-92
UACC-257 = test system: UACC-257
SN12C = test system: SN12C
KM-20L2 = test system: KM-20L2
MOLT-4 = test system: MOLT-4
RPMI-8226 = test system: RPMI-8226
NCI-H23 = test system: NCI-H23
SW-620 = test system: SW-620
Malme-3M = test system: Malme-3M
ACHN = test system: ACHN
OVCAR-3 = test system: OVCAR-3
UO-31 = test system: UO-31
TK-10 = test system: TK-10
RXF 393 = test system: RXF 393

Measured: GI50

COc1ccc(/C=C2\CCC(CCN3CCOCC3)C2=O)cc1 (stereo not drawn)
inactive: HCT-116 > 100 µM | HOP-62 > 100 µM | LOX IMVI > 100 µM | HOP-92 > 100 µM | UACC-257 > 100 µM | SN12C > 100 µM | KM-20L2 > 100 µM | MOLT-4 > 100 µM | RPMI-8226 > 100 µM | NCI-H23 > 100 µM | SW-620 > 100 µM | Malme-3M > 100 µM | ACHN > 100 µM | OVCAR-3 > 100 µM | UO-31 > 100 µM | TK-10 > 100 µM | RXF 393 > 100 µM

O=c1oc2c3ccc4ccccc4c3n(CCN3CCCCC3)c2c2ccccc12
inactive: HCT-116 31.8 µM | HOP-62 21.3 µM | LOX IMVI 31.1 µM | HOP-92 > 100 µM | UACC-257 > 62.5 µM | SN12C > 100 µM | KM-20L2 > 61 µM | MOLT-4 2.46 µM | RPMI-8226 > 100 µM | NCI-H23 21.4 µM | SW-620 18.8 µM | Malme-3M 30.3 µM | ACHN 31.6 µM | OVCAR-3 18.5 µM | UO-31 49.4 µM | TK-10 37.2 µM | RXF 393 14.8 µM

CN(C)CC1CCCC/C1=N/OC(=O)c1ccc(Cl)cc1 (stereo not drawn)
inactive: HCT-116 > 100 µM | HOP-62 > 100 µM | LOX IMVI > 100 µM | HOP-92 > 100 µM | UACC-257 > 100 µM | SN12C > 100 µM | KM-20L2 > 100 µM | MOLT-4 > 100 µM | RPMI-8226 > 100 µM | NCI-H23 > 100 µM | SW-620 > 100 µM | Malme-3M > 100 µM | ACHN > 100 µM | OVCAR-3 > 100 µM | UO-31 > 100 µM | TK-10 > 100 µM | RXF 393 > 100 µM

N#CC(C(=O)C(=O)Nc1ccc(Cl)c(Cl)c1)c1ccc(Cl)cc1 (stereo not drawn)
inactive: HCT-116 23.6 µM | HOP-62 > 100 µM | LOX IMVI 16.7 µM | HOP-92 36.4 µM | UACC-257 > 100 µM | SN12C 91 µM | KM-20L2 > 100 µM | MOLT-4 64.7 µM | RPMI-8226 35.2 µM | NCI-H23 > 100 µM | SW-620 16 µM | Malme-3M 97.3 µM | ACHN 83 µM | OVCAR-3 37.7 µM | UO-31 47.1 µM | TK-10 > 100 µM | RXF 393 > 100 µM
